For data set [1], the system named is MDA-MB-231. Kind of data set: Cytotoxicity against human MDA-MB-231 cells assessed as cell viability incubated for 72 hrs by MTT assay. The data set is classed as functional, cell-based. The conditions noted are these: MDA-MB-231, 72 h. (In general: Tetrazolium assays rely on reduction of a dye to a coloured formazan, in cell work by metabolically active cells.)

The subject of data set [2] is MCF7. Kind of data set: Cytotoxicity against human MCF7 cells assessed as cell viability incubated for 72 hrs by MTT assay. The data set is classed as functional, cell-based. The note with it: MCF7, 72 h.
Data set [3] has as its system MDA-MB-231. Description: Cytotoxicity against human MDA-MB-231 cells assessed as cell viability at 100 uM incubated for 72 hrs by MTT assay relative to control. The data set is classed as functional. The conditions noted are these: read-out: Activity.
Data set [4] concerns MCF7. Kind of data set: Cytotoxicity against human MCF7 cells assessed as cell viability at 100 uM incubated for 72 hrs by MTT assay relative to control. The conditions noted are these: read-out: Activity. The data set is classed as functional.
Data set [5] has as its system MCF-10A. Description: Cytotoxicity against human MCF-10A cells assessed as cell viability incubated for 72 hrs by MTT assay. The data set is classed as functional, cell-based.
Data set [6] concerns HepG2. Kind of data set: Antitumor activity against human HepG2 cells incubated for 72 hrs by MTT assay. It counts as functional, cell-based. The note with it: HepG2, 72 h.
Data set [7] can be described thus: Downregulation of Bcl-2 mRNA expression level in human MCF7 cells assessed as fold change by qRT-PCR analysis. The data set is classed as functional. (In qPCR the cycle at which signal appears reflects the starting amount.)
Data set [8] in a line: Selectivity index, ratio of IC50 for human MCF-10A cells to ratio of IC50 for human MCF-7 cells. The data set is classed as toxicity. The conditions noted are these: MCF-10A cells versus MCF-7 cells, read-out: Selectivity Index.
Data set [9] concerns MCF7. Description: Downregulation of Bcl-2 protein level in human MCF7 cells by Western blot analysis. The conditions noted are these: time 24-72 hrs, TDE = time-dependent effect. The data set is classed as functional, cell-based. (In general: Immunoblotting shows a protein as a band on a membrane.)
Data set [10] deals with MCF7. Kind of data set: Induction of apoptosis in human MCF7 cells incubated for 72 hrs by Annexin V-FITC and PI staining based flow cytometry analysis. It counts as functional.
For data set [11], the system named is MDA-MB-231. Description: Induction of apoptosis in human MDA-MB-231 cells incubated for 72 hrs by Annexin V-FITC and PI staining based flow cytometry analysis. The data set is classed as functional.
Data set [12] in a line: Upregulation of Bax mRNA expression level in human MCF7 cells assessed as fold change by qRT-PCR analysis. It counts as functional.
Data set [13] in a line: Upregulation of Bax mRNA expression level in human MDA-MB-231 cells assessed as fold change by qRT-PCR analysis. The data set is classed as functional.
Data set [14] relates to MCF7. Kind of data set: Upregulation of Bax protein level in human MCF7 cells by Western blot analysis. The conditions noted are these: time 24-72 hrs, TDE = time-dependent effect. It counts as functional, cell-based.
The nature of data set [15]: Stability of compound in D2O/DMSO-d6 (20:80) measured after 2 days by 1H NMR spectroscopic analysis. It counts as physicochemical. The conditions noted are these: 48 h; time 2 day.
A short description of data set [16]: Downregulation of Bcl-2 mRNA expression level in human MDA-MB-231 cells assessed as fold change by qRT-PCR analysis. It counts as functional.
Data set [17] relates to DNA. Description: Binding affinity to DNA (unknown origin) assessed as intrinsic binding constant at 0 to 15 uM by ultraviolet-visible spectroscopic analysis. The conditions noted are these: dose 0-15 µM. The data set is classed as nucleic-acid assay.
Data set [18] is described as follows: Stability of compound in 100 % DMSO-d6 by 1H NMR spectroscopic analysis. It counts as physicochemical. The conditions noted are these: 168 h, TDE = time-dependent effect, time < 7 day.
In data set [19] the test system is MDA-MB-231. Description: Upregulation of Bax protein level in human MDA-MB-231 cells measured after 24 to 72 hrs by Western blot analysis. The conditions noted are these: time 24-72 hrs. The data set is classed as functional, cell-based.
The nature of data set [20]: Selectivity index, ratio of IC50 for human MCF-10A cells to ratio of IC50 for human MDA-MB-231 cells. The conditions noted are these: MCF-10A cells versus MDA-MB-231 cells, read-out: Selectivity Index. It counts as toxicity.
The subject of data set [21] is MDA-MB-231. Description: Upregulation of Bax protein level in human MDA-MB-231 cells by Western blot analysis. The data set is classed as functional, cell-based. The conditions noted are these: time 24-72 hrs, TDE = time-dependent effect.
The subject of data set [22] is MCF7. Kind of data set: Downregulation of Bcl-2 protein level in human MCF7 cells measured after 24 to 72 hrs by Western blot analysis. It counts as functional, cell-based. The note with it: time 24-72 hrs.
Data set [23] has as its system MDA-MB-231. Kind of data set: Downregulation of Bcl-2 protein level in human MDA-MB-231 cells measured after 24 to 72 hrs by Western blot analysis. The conditions noted are these: time 24-72 hrs. It counts as functional, cell-based.
Data set [24] relates to MDA-MB-231. Description: Downregulation of Bcl-2 protein level in human MDA-MB-231 cells by Western blot analysis. The conditions noted are these: time 24-72 hrs, TDE = time-dependent effect. It counts as functional, cell-based.
The nature of data set [25]: Stability of compound in D2O/DMSO-d6 (20:80) measured upto 1 day by 1H NMR spectroscopic analysis. The note with it: 24 h. The data set is classed as physicochemical.
For data set [26], the system named is MCF7. Description: Upregulation of Bax protein level in human MCF7 cells measured after 24 to 72 hrs by Western blot analysis. It counts as functional, cell-based. The conditions noted are these: time 24-72 hrs.

The values that follow come from ChEMBL document CHEMBL5614403, “Efficient synthesis of novel 1,10 phenanthroline-substituted imidazolium salts: Exploring their anticancer applications” (Eur J Med Chem, 2024).

As a reminder, the IC50 is the concentration needed to halve the response being measured. Consider `CCCC[n+]1ccn(-c2cc3cccnc3c3ncccc23)c1`, for which the IC50 turned out to be 52.6 µM in [1], 43.4 µM in data set [2] and 48.4 µM in data set [5]. The viability at 100 µM in data set [3] stood at 25.2%; in data set [4], 4.8%.

With `Cc1cc(C)c(C[n+]2ccn(-c3cc4cccnc4c4ncccc34)c2)c(C)c1`, the IC50 in [1] came to 32.7 µM; in [2], 64.2 µM; in data set [5] it was 35.9 µM.

Regarding `c1ccc(-c2nc3c4cccnc4c4ncccc4c3[nH]2)cc1`, the IC50 in [6] worked out at 0.68 µM.

With `CCCCCCCCCCCC[n+]1ccn(-c2cc3cccnc3c3ncccc23)c1.[Br-]`, the “fold change (FC)” value in [7] was 3.9; in data set [12], 3.4; in [13], 3.6; in data set [16], 4.2. In addition, the values for the IC50 in data set [1], in data set [2] and in [5] were 12.8 µM, 15.4 µM and 64.2 µM, respectively. Further, the results for the selectivity ratio in data set [8] and in [20] were 4.1 and 5, respectively. The Activity result in data set [9] was “Tde”; in data set [10], 89%; in [11] it was 95%; in [14], “Tde”; in [19], “Dose-Dependent Effect”; in [21] it was “Tde”. In addition, the Activity result was “Dose-Dependent Effect” in [22], “Dose-Dependent Effect” in data set [23], “Tde” in [24] and “Dose-Dependent Effect” in data set [26]. Moreover, the Stability entry is “Unstable” in data set [15], “Tde” in data set [18] and “Stable” in data set [25]. Also, in data set [17], the Kb turned out to be 12600 M⁻¹.

Turning to `c1ccc(C[n+]2ccn(-c3cc4cccnc4c4ncccc34)c2)cc1`, the concentration for half-maximal inhibition (IC50) in [1] was 29.4 µM; in [2], 52 µM; in [5], 46.7 µM.

Regarding `Cc1c(C)c(C)c(C[n+]2ccn(-c3cc4cccnc4c4ncccc34)c2)c(C)c1C`, the IC50 in data set [1] was determined as 37.2 µM; in [2], 49.8 µM; in [5], 32.4 µM.

For `c1cnc2c(c1)cc(-n1ccnc1)c1cccnc12`, the concentration for half-maximal inhibition (IC50) was 60.7 µM in data set [1], 128 µM in data set [2] and 237 µM in data set [5]. Moreover, the values for the viability at 100 µM in data set [3] and in data set [4] were 39.7% and 61.3%, respectively.

In the case of `COc1cccc2c1C(=O)c1c(O)c3c(c(O)c1C2=O)C[C@@](O)(C(=O)CO)C[C@@H]3O[C@H]1C[C@H](N)[C@H](O)[C@H](C)O1` [DOXORUBICIN], the IC50 in data set [1] is 4.8 µM.

With `CCCCCCCC[n+]1ccn(-c2cc3cccnc3c3ncccc23)c1`, the figures for the half-inhibitory concentration (IC50) in data set [1], in data set [2] and in data set [5] were 17.8 µM, 49.7 µM and 35.1 µM, respectively. Besides, the viability at 100 µM in [3] was found to be 10.1%; in data set [4] it was 21.1%.
